Laboratory results: US10758620B2, “Potentiated antimicrobial agents” (SEPTEOS, priority 2014, dated 2020)
Where two headings read alike, the source gives them in different places.

How the values were obtained:
Type in all cases: cell-based
[1] = system: Strain 10168, methicillin resistant S. aureus (MRSA); test: Resistance test (resistant mutants), Strain 10168; conditions: MRSA, text after Table 16
Method: (§1) After 48 h incubation, the presence or absence of colonies likely to be resistant mutants is observed.
(§2) ED control or DMSO=only distilled water or DMSO is added
(§3) Ciprofloxacine DMSO: addition of Ciprofloxacine in DMSO

[2] = system: Strain 09003, methicillin resistant S. aureus (MRSA); test: Resistance test (resistant mutants), Strain 09003; conditions: MRSA, text after Table 15
Method: as §1, §2, §3

Staphylococcus = test: MIC measurement in agar medium (dilution test), Staph; conditions: potentiator alone
From the text: Inhibitory minimum concentration measurement tests are made in a solid agar medium according to international standards in force (CLSI M7-A9 Jan 12 standards): dispersion of the compounds to be tested in a Mueller Hinton gelose. An adaptation relating to the hydrophobicity of compounds and compositions is however necessary to disperse them in the medium: dilution of the compounds in a solvent. The compounds and compositions incorporated in the agar medium can be diluted beforehand in one or more solvents (Tween® 80 diluted with water, Tween® 80 diluted with […], DMSO diluted with water). The strains are deposited onto the agar surface with a steers apparatus. In the examples, different dissolution methods for products are tested in parallel to circumvent the problems of water/solvent distribution coefficient of the molecules (antimicrobial and potentiator) whereas the bacteria grow only in the aqueous phase. The technical requirement will not intervene in in vivo tests. The same dilution methods can be implemented in a liquid medium (microplates and tubes). The same methodology is implemented with fungi. […] MIC measurement: the minimum inhibitory concentration measurement tests are made in an agar solid medium according to international standards in force (CLSI standards), according to the previously defined protocol. […] The booster contribution as compared with the MIC of the antibiotic alone is expressed in a (MIC ATB)/(MIC ATB+booster) ratio. Thereby, gains are defined: […]

MSSA 8237 = test: Etest, staphylococci MSSA 8237; conditions: for MIC: Staphylococcus aureus, MSSA
From the text: (§4) The corresponding tests are made based on the usual MIC test: the Etest® (Biomerieux) strip is deposited onto the surface of a seeded agar medium in which the booster has been incorporated. This test enables solvent effect risks, that is a possible interaction with the solvent used in vitro, to be minimised.
(§5) The control corresponds to the test made without cineol. A control is made in each solvent tested: distilled water, Tween/water and DMSO.
(§6) ED control=antibiotic alone in distilled water
(§7) DMSO control=antibiotic alone in DMSO
(§8) TE control=antibiotic alone in Tween® 80

Strain 10168 SARM = test: Growth test in liquid medium; conditions: compound at a very low dose
From the text: The growth tests are made in a liquid medium with prior dispersing the antibiotic booster in a suitable solvent (tween/water).
4XMIC means that the concentration of antibiotic is 4 times higher than its MIC, measured when used alone on the strain considered.

Pseudomonas Strain 08132 = test: Etest, Pseudomonas Strain 08132
From the text: as §4, §5, §6, §7, §8

E. Coli Strain 8150 = test: Etest, E. Coli Strain 8150; conditions: for MIC: Escherichia coli, read-out: MIC of Pipera tazo, Strain 8150; for MIC of Meropenem / MIC of Tigecycline: Strain 8150
From the text: as §4, §5, §6, §7, §8

[3] = system: methicillin resistant S. aureus (MRSA) strains 09003, 10168; test: MIC of the potentiator used alone on the strains of Examples 3 and 4; conditions: Staphylococcus aureus, on these strains
[4] = MSSA 8237, booster 1 mg/L in agar, DMSO
[5] = MSSA 8237, booster 1 mg/L in agar, Tween/water
[6] = MSSA 8237, booster 4 mg/L in agar, DMSO
[7] = MSSA 8237, booster 4 mg/L in agar, Tween/water
[8] = MSSA 8237, booster 16 mg/L in agar, DMSO
[9] = MSSA 8237, booster 16 mg/L in agar, Tween/water
[10] = booster 4 mg/L in agar, Tween/water
[11] = booster 16 mg/L in agar, Tween/water
[12] = booster 1 mg/L in agar, Tween/water

## O=C(OCc1ccccc1)c1ccccc1 [BB, benzyl benzoate]
[1]
  occurrence of mutants on addition of the compound to ciprofloxacine: does not cause the occurrence of mutants any longer
[2]
  occurrence of mutants on addition of the compound to ciprofloxacine: does not cause the occurrence of mutants any longer
Staphylococcus; solvent DMSO
  MIC 50: 1.00%
  MIC 90: 1.00%
Staphylococcus; solvent Tween/prop glyc
  MIC 50: >1%
  MIC 90: >1%
Staphylococcus; solvent Tween/water
  MIC 50: >1%
  MIC 90: >1%
Staphylococcus; solvent water/water
  MIC 50: >1%
  MIC 90: >1%
MSSA 8237; [4]
  MIC of Cefoxitine: 2 mg/L
  MIC of Meropenem: 0.25 mg/L
  MIC of Penicillin G: 0.38 mg/L
MSSA 8237; [5]
  MIC of Cefoxitine: 3 mg/L
  MIC of Meropenem: 0.19 mg/L
  MIC of Penicillin G: 0.25 mg/L
MSSA 8237; [6]
  MIC of Cefoxitine: 3 mg/L
  MIC of Meropenem: 0.19 mg/L
  MIC of Penicillin G: 0.25 mg/L
MSSA 8237; [7]
  MIC of Cefoxitine: 3 mg/L
  MIC of Meropenem: 0.125 mg/L
  MIC of Penicillin G: 0.19 mg/L
MSSA 8237; [8]
  MIC of Cefoxitine: 3 mg/L
  MIC of Meropenem: 0.19 mg/L
  MIC of Penicillin G: 0.19 mg/L
MSSA 8237; [9]
  MIC of Cefoxitine: 3 mg/L
  MIC of Meropenem: 0.064 mg/L
  MIC of Penicillin G: 0.125 mg/L
MSSA 8237; MSSA 8237, booster 1 mg/L in agar, DMSO, read-out: MIC of Clindamycine
  MIC: 0.047 mg/L
MSSA 8237; MSSA 8237, booster 1 mg/L in agar, Tween/water, read-out: MIC of Clindamycine
  MIC: 0.047 mg/L
MSSA 8237; MSSA 8237, booster 4 mg/L in agar, DMSO, read-out: MIC of Clindamycine
  MIC: 0.047 mg/L
MSSA 8237; MSSA 8237, booster 4 mg/L in agar, Tween/water, read-out: MIC of Clindamycine
  MIC: 0.047 mg/L
MSSA 8237; MSSA 8237, booster 16 mg/L in agar, DMSO, read-out: MIC of Clindamycine
  MIC: 0.047 mg/L
MSSA 8237; MSSA 8237, booster 16 mg/L in agar, Tween/water, read-out: MIC of Clindamycine
  MIC: 0.094 mg/L
MSSA 8237; read-out: MIC of Pipera tazo, MSSA 8237, booster 1 mg/L in agar, DMSO
  MIC: 1 mg/L
MSSA 8237; read-out: MIC of Pipera tazo, MSSA 8237, booster 1 mg/L in agar, Tween/water
  MIC: 1 mg/L
MSSA 8237; read-out: MIC of Pipera tazo, MSSA 8237, booster 4 mg/L in agar, DMSO
  MIC: 1 mg/L
MSSA 8237; read-out: MIC of Pipera tazo, MSSA 8237, booster 4 mg/L in agar, Tween/water
  MIC: 1 mg/L
MSSA 8237; read-out: MIC of Pipera tazo, MSSA 8237, booster 16 mg/L in agar, DMSO
  MIC: 0.75 mg/L
MSSA 8237; read-out: MIC of Pipera tazo, MSSA 8237, booster 16 mg/L in agar, Tween/water
  MIC: 0.75 mg/L
Strain 10168 SARM
  effect of the compound on bactericidal rate of Augmentin: enables the bactericidal rate of Augmentin® to be accelerated
Pseudomonas Strain 08132; booster 4 mg/L in agar, DMSO
  MIC of Meropenem: 8 mg/L
Pseudomonas Strain 08132; [10]
  MIC of Meropenem: 8 mg/L
Pseudomonas Strain 08132; booster 16 mg/L in agar, DMSO
  MIC of Meropenem: 2 mg/L
Pseudomonas Strain 08132; [11]
  MIC of Meropenem: 12 mg/L
E. Coli Strain 8150; booster 1 mg/L in agar, DMSO
  MIC: 0.75 mg/L
  MIC of Meropenem: 0.047 mg/L
  MIC of Tigecycline: 0.125 mg/L
E. Coli Strain 8150; [12]
  MIC: 1.5 mg/L
  MIC of Meropenem: 0.094 mg/L
  MIC of Tigecycline: 0.125 mg/L
E. Coli Strain 8150; booster 4 mg/L in agar, DMSO
  MIC: 1 mg/L
  MIC of Meropenem: 0.064 mg/L
  MIC of Tigecycline: 0.094 mg/L
E. Coli Strain 8150; [10]
  MIC: 1 mg/L
  MIC of Meropenem: 0.064 mg/L
  MIC of Tigecycline: 0.19 mg/L
E. Coli Strain 8150; booster 16 mg/L in agar, DMSO
  MIC: 1 mg/L
  MIC of Meropenem: 0.094 mg/L
  MIC of Tigecycline: 0.125 mg/L
E. Coli Strain 8150; [11]
  MIC: 1.5 mg/L
  MIC of Meropenem: 0.094 mg/L
  MIC of Tigecycline: 0.094 mg/L
[3]
  MIC: > 10000 mg/L
